Test results taken from US20100017370A1, “T CELL EPITOPE DATABASES” (ANTITOPE LIMITED, priority 2006, published 2010).

System: helper T cells in human PBMCs
Assay: ex vivo T cell proliferation assay of peptides with CD8+ / CD25hi depleted PBMC
Type: cell-based
Conditions: for Number of responding donors: from 50 donors with a range of MHC class haplotypes; for Mean SI: mean stimulation index for responding donors, 50 donors tested; for helper T cell epitope status by T cell assays (database entry): proliferation assay, threshold SI≧2, CD25hi depletion 10 and 20 minutes; for T cell epitope strength (T cell proliferative responses): PBMCs of donor 475, peptide 5 μM

Row | Sequence | Number of responding donors | Mean SI | helper T cell epitope status by T cell assays (database entry) | T cell epitope strength (T cell proliferative responses)
1 | FKGEQGPKG | 4 | 3.5 ± 0.7 | – | –
2 | FLLTRILTI | 6 | 3.9 ± 1.6 | – | –
3 | FQHESGPLG [test peptide] | 3 | 2.8 ± 0.7 | – | –
4 | FQHTSILLI [test peptide] | 5 | 3.8 ± 0.7 | – | –
5 | GDKGVSWYQQGSGQS [2-F→G] | – | – | negative | –
6 | GFGBHIGPLGEP | – | – | non-T cell epitope | –
7 | GQHASGGLA [control peptide with altered P1 residue] | 0 | – | – | –
8 | GQHESASLR [control peptide with altered P1 residue] | 0 | – | – | –
9 | GQHESGPLG [control peptide with altered P1 residue] | 0 | – | – | –
10 | GQHTSILLI [control peptide with altered P1 residue] | 0 | – | – | –
11 | GQHWSYPLT [control peptide with altered P1 residue] | 0 | – | – | –
12 | ILWEWASYR | 3 | 2.6 ± 0.6 | – | –
13 | IQHESASLR [test peptide] | 3 | 2.6 ± 0.1 | – | –
14 | LQHASGGLA [test peptide] | 2 | 2.2 ± 0.2 | – | –
15 | LQHWSYPLT | 5 | 6.3 ± 1.3 | – | –
16 | LSCAAGGRA | 3 | 2.3 ± 0.5 | – | –
17 | PKYRNGQPLNSLKIAT [25 M→G] | – | – | negative | –
18 | PKYRNMQPLNSLKIAT [compound 25] | – | – | helper T cell epitopes | strong
19 | QSISNWGNWYQQKPG [9-L→G] | – | – | negative | –
20 | TVFYNIPPMPL [compound 26] | – | – | helper T cell epitopes | strong
21 | TVGYNIPPMPL [26 F→G] | – | – | negative | –
